# Reference: patent US11208404B2 (PERENNA PHARMACEUTICALS, INC., priority 2017, dated 2021)
# Several values for one entry are separate records, joined by “and”; a condition that tells them apart may be missing. Equal entries are not always repeated.
# Biological target: ALCAT1 (Homo sapiens (Human), UniProt Q6UWP7)
# Assay: In vitro acyltransferase assay for ALCAT1 inhibitors
# Type: biochemical
# Settings: for % inh @ 1 μM / inhibition at 1 µM: 1 μM compound; for % inh @ 1 μM / inhibition at 1 µM / % inh @ 10 μM / inhibition at 10 µM: in vitro enzymatic assay; for % inh @ 10 μM / inhibition at 10 µM: 10 μM compound; for IC50: ALCAT1 enzyme activity, triplicates, GraphPad, read-out: IC50
# From the text: The human ALCAT1 protein were expressed in Spodoptera frugiperda (Sf9) insect cells by using a Bac-to-Bac baculovirus expression system (Invitrogen) according to the manufacturer's instruction. High-titer recombinant baculovirus expressing the human ALCAT1 protein was generated by several rounds of viral amplification. The Sf9 cells were typically infected with recombinant baculovirus for 3 days, harvested in ice-cold phosphate-buffered saline (PBS), and homogenized in 20 mm NaCl by going through French press. The total cell lysates were centrifuged at 10,000×g for 1 hours at 4° C. to eliminate the nucleus fraction, followed by ultracentrifugation at 100,000×g to pallet the membrane fraction. The membrane fraction was resuspended in enzymatic buffer that contain 10% glycerol, quantified for protein concentration, aliquoted, and stored at −80° C.
# ALCAT1 enzymatic activity was determined by measuring the conversion of monolysocardiolipin (MLCL) to cardiolipin or lysophosphatidylglycerol (LPG) to phosphatidylglycerol (PG) in an enzymatic reaction mixture that contained 50 mm Tris/HCl, pH 7.0, 100 μm lysophospholipids, 25 μm [^14C]acyl-CoA (50 mCi/mmol, American Radiolabeled Chemicals, Inc), and membrane fraction (0.5-2.5 μg) in a total volume of 200 μl. The reaction was incubated at room temperature for 30 min. The lipids were extracted will chloroform, dried, and separated by thin layer chromatography (TLC) with chloroform:hexane:methanol:acetic acid (50:30:10:5, v/v) or chloroform:methanol:water (65:25:4, v/v). After separation, TLC plates were exposed to a Phosphorlmager screen to visualize the radiolabeled products with a Molecular Dynamics Typhoon Scanner (Sunnyvale, Calif.). In some experiments, NBD-CoA was used at 100 μM to replace the [^14C]acyl-CoA in the enzymatic reaction. All quantitative data were expressed as mean±S.E. Statistical analyses for differences between two groups were carried out using a Student's t test.
# Compound inhibitors for ALCAT1 enzyme were analyzed by an in vitro enzymatic assay as detailed above. Compound inhibitors were added to the enzymatic mixture at 1-20 μM concentrations before the start of the acyltransferase reaction.
# Where multiple measurements were taken this is indicated by a “/” between multiple values.
# IC50 values for each compound were analyzed in triplicates, and calculated by GraphPad software.
# Sequence of ALCAT1 (Q6UWP7 whole entry): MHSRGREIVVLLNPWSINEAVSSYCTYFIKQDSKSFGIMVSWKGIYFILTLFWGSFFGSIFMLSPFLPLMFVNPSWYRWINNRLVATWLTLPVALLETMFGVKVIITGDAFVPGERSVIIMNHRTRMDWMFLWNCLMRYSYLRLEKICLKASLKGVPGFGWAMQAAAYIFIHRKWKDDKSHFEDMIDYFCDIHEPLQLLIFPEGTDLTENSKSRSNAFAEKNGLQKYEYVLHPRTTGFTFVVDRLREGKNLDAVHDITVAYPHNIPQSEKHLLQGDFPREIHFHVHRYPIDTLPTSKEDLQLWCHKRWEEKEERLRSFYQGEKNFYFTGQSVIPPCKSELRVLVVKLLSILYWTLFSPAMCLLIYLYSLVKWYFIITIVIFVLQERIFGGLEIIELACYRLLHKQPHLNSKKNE
Structure (SMILES),% inh @ 1 μM,inhibition at 1 µM [%],% inh @ 10 μM,IC50 [nM],inhibition at 10 µM [%]
O=C(Nc1cccc(-c2nnc(-c3ccco3)o2)c1)c1ccccc1F [Compound 1],63%,59,48% and 49% and 79%,210,–
O=C(Nc1cccc(-c2nnc(-c3ccco3)o2)c1)c1ccccc1Br [Compound 5],–,–,–,4100,39
O=C(Nc1cccc(-c2nnc(-c3ccco3)o2)c1)c1ccccc1C(F)(F)F [Compound 7],–,–,–,–,3
O=C(Nc1cccc(-c2nnc(-c3ccco3)o2)c1)c1ccccc1C(F)F [Compound 9],–,47,–,–,87
O=C(Nc1cccc(-c2nnc(-c3ccco3)o2)c1)c1ccc(C(F)F)cc1 [Compound 10],–,–,–,–,2
O=C(O)c1ccccc1C(=O)Nc1cccc(-c2nnc(-c3ccco3)o2)c1 [Compound 11],–,–,–,–,9
"O=C(Nc1cccc(-c2nnc(-c3cccs3)o2)c1)c1ccccc1F [Compound 15, 2-fluoro-N-(3-(5-(thiophen-2-yl)-1,3,4-oxadiazol-2-yl)phenyl)benzamide]",–,20,–,–,–
O=C(Nc1cccc(-c2nnc(-c3ccc[nH]3)o2)c1)c1ccccc1F [Compound 16],58% and 85%,–,–,–,–
O=C(Nc1cccc(-c2nnc(-c3ccc(Br)o3)o2)c1)c1ccccc1F [Compound 18],–,–,–,–,2
Cc1ccc(-c2nnc(-c3cccc(NC(=O)c4ccccc4F)c3)o2)o1 [Compound 19],–,–,–,–,2
"O=C(Nc1cccc(-c2nnc(-c3ccoc3)o2)c1)c1ccccc1F [Compound 20, 2-fluoro-N-(3-(5-(furan-3-yl)-1,3,4-oxadiazol-2-yl)phenyl)benzamide]",–,13,–,–,–
O=C(Nc1cccc(-c2nnc(-c3ccsc3)o2)c1)c1ccccc1F [Compound 21],–,–,–,–,85
"O=C(Nc1cccc(-c2nnc(C3CCCO3)o2)c1)c1ccccc1F (stereo not shown) [Compound 22, 2-fluoro-N-(3-(5-(tetrahydrofuran-2-yl)-1,3,4-oxadiazol-2-yl)phenyl)benzamide]",–,20,–,–,8
O=C(Nc1cc(-c2nnc(-c3ccco3)o2)ccc1Cl)c1ccccc1F [Compound 23],–,–,–,1800,89
O=C(Nc1ccc(Cl)c(-c2nnc(-c3ccco3)o2)c1)c1ccccc1F [Compound 24],–,–,–,–,2
O=C(Nc1cc(-c2nnc(-c3ccco3)o2)ccc1Br)c1ccccc1F [Compound 25],–,–,–,–,56
O=C(Nc1cc(-c2nnc(-c3ccco3)o2)ccc1F)c1ccccc1F [Compound 27],–,–,–,47,98
O=C(Nc1ccc(F)c(-c2nnc(-c3ccco3)o2)c1)c1ccccc1F [Compound 28],–,–,–,–,51
"O=C(Nc1ccc(-c2nnc(-c3ccco3)o2)cc1)c1ccccc1F [Compound 35, 2-fluoro-N-(4-(5-(furan-2-yl)-1,3,4-oxadiazol-2-yl)phenyl)benzamide]",–,16,–,–,5
N#Cc1ccc(C(=O)Nc2cccc(-c3nnc(-c4ccco4)o3)c2)cc1 [Compound 36],–,–,–,–,1
O=C(Nc1cccc(-c2nnc(-c3ccco3)o2)c1)c1cccnc1F [Compound 37],–,–,87%,3900,76
"O=C(Nc1cc(-c2nnc(-c3ccco3)o2)ccn1)c1ccccc1F [Compound 39, 2-Fluoro-N-(4-(5-(furan-2-yl)-1,3,4-oxadiazol-2-yl)pyridin-2-yl)benzamide]",–,92,–,93,–
O=C(Nc1cccc(-c2cnc(-c3ccco3)o2)c1)c1ccccc1F [Compound 40],–,–,–,1700,–
O=C(Nc1cccc(-c2nnc(-c3ccno3)o2)c1)c1ccccc1F [Compound 42],–,23,–,–,70
"O=C(Nc1ccccc1F)c1cccc(-c2nnc(-c3ccco3)o2)c1 [Compound 44, N-(2-fluorophenyl)-3-(5-(furan-2-yl)-1,3,4-oxadiazol-2-yl)benzamide]",–,26,–,990,–
O=C(Nc1cccc(-c2nnc(-c3ccco3)o2)c1)c1ccccc1 [Compound 46],–,–,43% and 68% and 75%,3800,–
O=C(Nc1cccc(-c2nnc(-c3ccco3)o2)c1)c1ccc(-c2ccccc2)cc1 [Compound 48],–,–,2%,–,–
O=C(Nc1cncc(-c2nnc(-c3ccco3)o2)c1)c1ccccc1F [Compound 51],57%,43,–,–,–

Structure (SMILES),% inh @ 1 μM,inhibition at 1 µM [%],% inh @ 10 μM,IC50 [nM],inhibition at 10 µM [%]
O=C(Nc1ccnc(-c2nnc(-c3ccco3)o2)c1)c1ccccc1F [Compound 52],–,59,–,750,–
O=C(Nc1cccc(-c2nnc(-c3ccco3)o2)n1)c1ccccc1F [Compound 53],–,47,–,–,90
COc1ccccc1C(=O)Nc1cccc(-c2nnc(-c3ccco3)o2)c1 [Compound 55],–,81,–,130,100
N#Cc1ccccc1C(=O)Nc1cccc(-c2nnc(-c3ccco3)o2)c1 [Compound 56],–,–,–,–,2
Cc1cccc(C(=O)Nc2cccc(-c3nnc(-c4ccco4)o3)c2)c1 [Compound 57],–,–,89% and 94%,2800,75
COc1cccc(C(=O)Nc2cccc(-c3nnc(-c4ccco4)o3)c2)c1 [Compound 58],–,–,–,2400,45
O=C(Nc1cccc(-c2nnc(-c3ccco3)o2)c1)c1cccc(Cl)c1 [Compound 59],–,–,–,2000,–
O=C(Nc1cccc(-c2nnc(-c3ccco3)o2)c1)c1cccc(O)c1 [Compound 62],–,2,–,–,11
O=C(Nc1cccc(-c2nnc(-c3ccco3)o2)c1)c1ccccc1O [Compound 64],–,15,–,–,55
O=C(Nc1cccc(-c2nnc(-c3ccco3)o2)c1)c1cccc(OCc2ccccc2)c1 [Compound 71],–,51,–,–,93
O=C(Nc1cccc(-c2nnc(-c3ccco3)o2)c1)c1ccc(Br)cc1F [Compound 73],–,15,–,–,66
O=C(Nc1cccc(-c2nnc(-c3ccco3)o2)c1)c1ccc(-c2ccccc2)cc1F [Compound 74],–,4,–,–,21
COC(=O)c1ccccc1C(=O)Nc1cccc(-c2nnc(-c3ccco3)o2)c1 [Compound 75],–,16,–,–,36
Nc1ccccc1C(=O)Nc1cccc(-c2nnc(-c3ccco3)o2)c1 [Compound 77],–,37,–,–,21
Cc1c(NC(=O)c2ccccc2F)cccc1-c1nnc(-c2ccco2)o1 [Compound 78],59%,42,–,–,–
"O=C(Nc1cccc(-c2nnc(-c3ccco3)o2)c1F)c1ccccc1F [Compound 79, 2-fluoro-N-(2-fluoro-3-(5-(furan-2-yl)-1,3,4-oxadiazol-2-yl)phenyl)benzamide]",–,89,–,110,–
O=C(Nc1cc(-c2nnc(-c3ccc(Cl)o3)o2)c(F)cc1F)c1ccccc1F [Compound 80],–,22,–,–,–
Cc1ccc(NC(=O)c2ccccc2F)cc1-c1nnc(-c2ccco2)o1 [Compound 81],36%,20,–,–,–
O=C(Nc1cccc(-c2nnc(-c3ccc(Cl)o3)o2)n1)c1ccccc1F [Compound 82],–,23,–,–,3
O=C(Nc1cccc(-c2nnc(-c3ccco3)o2)c1)c1ccccc1I [Compound 83],–,36,–,–,43
O=C(Nc1cccc(-c2nnc(-c3ccco3)o2)c1)c1ccc(I)cc1 [Compound 84],–,5,–,–,–
O=C(Nc1cccc(-c2nnc(-c3ccco3)o2)c1)c1ccc([N+](=O)[O-])cc1 [Compound 85],–,10,–,–,3
O=C(Nc1cccc(-c2nnc(-c3ccco3)o2)c1)c1cccc([N+](=O)[O-])c1 [Compound 87],–,29,–,–,62
O=C(Nc1cccc(-c2nnc(-c3ccco3)o2)c1)C1CCCCC1 [Compound 98],–,11,–,–,2
O=C(Nc1cccc(-c2nnc(-c3ccco3)o2)c1)c1ccco1 [Compound 100],–,3,–,–,7
COc1ccc(I)cc1C(=O)Nc1cccc(-c2nnc(-c3ccco3)o2)c1 [Compound 113],–,96,–,110,94
COc1ccc(C(=O)O)cc1C(=O)Nc1cccc(-c2nnc(-c3ccco3)o2)c1 [Compound 114],–,36,–,–,48
